Measured values taken from US12286661B2, “Methods for making high intensity sweeteners” (Firmenich Incorporated, priority 2018, dated 2025).
Entries after “also recorded” stand apart in the source; their conditions may differ.

Experiments:
Type in all cases: cell-based
S. cerevisiae = test: Hydrolysis by hydrolytic enzymes of yeast grown in the presence of the compound, HPLC of lysed cells; conditions: for mogroside content after incubation: S. cerevisiae
Description: (§1) S. cerevisiae or Y. lipolytica was grown in the presence of Mogroside V to allow the hydrolytic enzymes in the yeast to generate Mogroside IIIE. After 1 or 2 days, the cells were lysed in analyzed by HPLC to determine the mogroside content.
(§2) S. cerevisiae or Y. lipolytica was grown in the presence of Compound 1.

Y. lipolytica = test: as above
Description: as §1, §2

[1] = tested on: Saccharomyces cerevisiae, Yarrowia lipolytica and Candida bombicola; test: Tolerance to microbial hydrolysis: yeast strains incubated in YPD with 1 mg/ml compound, supernatants analysed by HPLC; conditions: after 3 days
Description: Yeast strains Saccharomyces cerevisiae, Yarrowia lipolytica and Candida bombicola, were incubated in YPD supplemented with 1 mg/ml Mogroside V or Compound 1. After 3 days, supernatants were analyzed by HPLC.

cucurbitadienol = test: 11-OH cucurbitadienol production from cucurbitadienol by CYP450s expressed in S. cerevisiae, LCMS; conditions: S. cerevisiae strain producing cucurbitadienol and expressing SgCPR; LCMS peak area of product vs. internal reference; hits over vector only control
From the text: DNA was obtained through gene synthesis either through Genescript, IDT, or Genewiz. For some of the cucurbitadienol synthases, cDNA or genomic DNA was obtained through 10-60 day old seedlings followed by PCR amplification using specific and degenerate primers. DNA was cloned through standard molecular biology techniques or through yeast gap repair cloning (Joska et al., 2014) into one of the following overexpression vectors: pESC-Ura, pESC-His, or pESC-LEU. Gene expression was regulated by one of the following promoters; Gall, Gal10, Tef1, or GDS. Yeast transformation was performed using Zymo Yeast Transformation Kit II. Yeast strains were grown in standard media (YPD or SC) containing the appropriate selection with 2% glucose or 2% galactose for induction of heterologous genes. Yeast strains were grown in shake flask or 96 well plates at 30° ° C., 140-250 rpm. When indicated, lanosterol synthase inhibitor, Ro 48-8071 (Cayman Chemicals) was added (50 ug/ml). Yeast samples producing mogrol precursors, mogrol and mogrosides were processed through one of the following: • Cucurbitadienol and 11-OH Cucurbitadienol: Samples cell pellets were lysed (Yeast Buster) followed by ethyl acetate extraction, drying, and resuspension in methanol. • ·Mogrol and Mogrosides: Samples cell pellets were lysed in 50% ETOH, incubated at 80° C. for 30 min, filtered, dried and resuspended in MeOH for LCMS screening.
For analyzing 11-OH cucurbitadienol, the LCMS method included the use of C8 2.1×100 mm column, gradient 60 to 90% B for 6 minutes at flow rate of 0.55 ml/min. For the enzyme screening, the LCMS method used was a Waters Acquity UPLC Protein BEH C4, 2.1×100 mm, 1.7 μm column and a gradient of 40% to 80% over 5 minutes, 95% B from 5.1 to 5.6 minutes with a flow rate of 0.55 ml/min, and ESI source positive mode single ion monitoring of 425.4.
Additional CYP450s were expressed in S. cerevisiae strain producing cucurbitadienol and expressing SgCPR. DNA and protein sequences for the CYP450 enzymes are shown in SEQ IDs 871-890 and 1024-1049 (see Table 1).

Molecule: C[C@H](CC[C@@H](O[C@@H]1O[C@H](CO[C@@H]2O[C@H](CO)[C@@H](O)[C@H](O)[C@H]2O)[C@@H](O)[C@H](O)[C@H]1O[C@@H]1O[C@H](CO)[C@@H](O)[C@H](O)[C@H]1O)C(C)(C)O)[C@H]1CC[C@@]2(C)[C@@H]3CC=C4[C@@H](CC[C@H](O[C@@H]5O[C@H](CO[C@@H]6O[C@H](CO)[C@@H](O)[C@H](O)[C@H]6O)[C@@H](O)[C@H](O)[C@H]5O)C4(C)C)[C@]3(C)[C@H](O)C[C@]12C [Mogroside V, reference compound]
- mogroside content after incubation (S. cerevisiae; 1 day of incubation): produced a mixture of Mogroside V, Mogrosides IV, and Mogroside IIIE
- mogroside content after incubation (S. cerevisiae; 2 days of incubation): substantially all of the mogrosides were converted to Mogroside IIIE
- mogroside content after incubation (Y. lipolytica; Y. lipolytica, 2 days of incubation): produced mostly Mogroside IIIE
- hydrolysis by yeast strains (hydrolysis products by HPLC) [1]: hydrolyzed Mogroside V to Mogroside IIIE

Molecule: C[C@H](CC[C@@H](O[C@@H]1O[C@H](CO[C@H]2O[C@H](CO)[C@@H](O)[C@H](O)[C@H]2O)[C@@H](O)[C@H](O)[C@H]1O[C@@H]1O[C@H](CO)[C@@H](O)[C@H](O)[C@H]1O)C(C)(C)O)C1CC[C@@]2(C)C3CC=C4C(CC[C@H](O[C@@H]5O[C@H](CO)[C@@H](O)[C@H](O)[C@H]5O)C4(C)C)[C@]3(C)[C@H](O)C[C@]12C (stereo partly shown) [Compound 1]
- hydrolysis products (S. cerevisiae; S. cerevisiae grown in the presence of the compound): no hydrolysis products due to hydrolysis of Compound 1 was observed; also recorded: no hydrolysis product from Compound 1 was detected
- hydrolysis products (Y. lipolytica; Y. lipolytica grown in the presence of the compound): no hydrolysis products due to hydrolysis of Compound 1 was observed; also recorded: no hydrolysis product from Compound 1 was detected
- hydrolysis by yeast strains (hydrolysis products by HPLC) [1]: no hydrolysis products observed; also recorded: tolerance of Compound 1 to hydrolysis by microbial enzymes

B1: SEQ ID NO. 1046/1047: CYP450 enzyme (DNA/protein SEQ ID NO) producing 11-OH cucurbitadienol (protein, listed as Siraitia grosvenorii)
chain: MELWLWLLGASVGAYVFVFGILRNLNQWRFVTRHRNRYNLPPGDMGWPLIGTLLPFLQAFRSGRPDSFIHYFASTYGKIGMYKTYLFGSPSVIVCLPEVCRHVLMNDEQFVFGYSKATRILTGSKALNTVPKAEHRRLRRLIASLISGNDALSVYIGHVEGIVINCLQEWGSMKKPVEFLSEMKTVAFKVLLHIFIGSTSAAFIDKMEKLYTDFHLGFMSTPIDLPGTTFSRALKARNELIRIFENVLKEKRANLKSKEGENRKKDMTDLLLEVRDEDGQGLDDGCIIDLLIGFFFAGHETSAHSIMRAIMFLSENPETLLKAKAEQEQIVKARPADDQHKGLTMKEIKQMEYLSKVIDETLRKTSLAFTLSRETKVDVNLNGYTIPKGWKILVWTRAVHMDPEIYESPQKFDPSRWDNSKRRAGSFIPFGAGMRLCPGIDLSKLEIAIFLHYFIYGGFRLERVNPNCPENYLPLARPTDNCLARVVRDS
- Peak Area 11-OH CCB (cucurbitadienol): 0.2276

B2: SEQ ID NO. 1044/1045: CYP450 enzyme (DNA/protein SEQ ID NO) producing 11-OH cucurbitadienol (protein, listed as Siraitia grosvenorii)
chain: MDELKWFVLIPATFFLVVFVFEVLKRLNGWYYATKLWKIWDELPPGDMGWPLLGSTLSYINDFTAGQPQNFIRTFSNRYGKADMYKTHILGRASIIICTPEICRQVLTNEDKFKPSLPGNMKILSGRKSLMQVSKAEHRRLRRLTMAPISGHAALEMYISHIQATVVGGLEEWASIQRPVELVTEIKRLTFKVIWNIFMGSTSLDSSMGAMEALFSDVAVGFLSLPINFPGFYFHKSLKARKRLIEILQSIINEKRLVKKSKGESWEAKDMMDLMIEVKDEDGEELDDETIIDLIFGKLFAGHETSAFTAMWAVLFLTDHPQIFQKAKEEQEEIIRRRPSTQKGINLSDYKQMKFLSQVIDETLRVSCITSLLFREATADVEINGKIIPKGWRVLPWLGMLYMDENLFPSPQEFNPSRWDNFVPKPGAFIPFGVGNRFCPGSDLAKLEISIFLHYFLLNYKVERLNPKCHLTCLPFPHPTDKCLARVHKVA
- Peak Area 11-OH CCB (cucurbitadienol): 0.2664

B3: SEQ ID NO. 1040/1041: CYP450 enzyme (DNA/protein SEQ ID NO) producing 11-OH cucurbitadienol (protein, listed as Siraitia grosvenorii)
chain: MEVELTNFWVMILAAVLGFCVFVFGFLRRFNDLWTMVKLGKKVYKTLPPGDMGWPLIGSSLWFYKAFSASGDPDSFIKHLRSRYGRVGMYKTHLFGKPAVIVTDPEICRRVYSDDKHFVMSYPKSVKILGTGSLSRIDHRITHRFMAAPINGSEALARYVGFIEQVVVRGLEEWSSMRKPIELLHEIKRLTFRIIIHVFMGSALDPHIPKLEKLYAELSAAVFVAFAIDVPGSTYHRALKAKEEIQNILRPVIEEKRRIIEKNEEMEDKCQLDAVIKGKNGKGEKIFDNDAIIDMLLGLLYAGHHTSAHGTMWALIQLLEHPQVYEKAKEEQELIMKQRPSTQKGLIFNEIKQMTYLVKVINEMLRRVSIVFANFREAATDVNINGYTIPKGWVVPVWIKGVHMDPQIYPNPEEFNPSRWDTHTPKPGAFIPFGFGNRFCPGNELAKLEITILLHHFLLKYRWERVNPKASITSVPMPSPIDQCLAKITAIPSS
- Peak Area 11-OH CCB (cucurbitadienol): 0.3523

B4: SEQ ID NO. 1024/1025: CYP450 enzyme (DNA/protein SEQ ID NO) producing 11-OH cucurbitadienol (protein, listed as Citrullus lanatus)
chain: MWTILLGLATLAIAYYIHWVNKWKDSKFNGVLPPGTMGLPLIGETIQLSRPSDSLDVHPFIQSKVKRYGPIFKTCLAGRPVVVSTDAEFNHYIMLQEGRAVEMWYLDTLSKFFGLDTEWLKALGLIHKYIRSITLNHFGAESLRERFLPRIEESARETLHYWSTQPSVEVKESAAAMVFRTSIVKMFSEDSSKLLTGGLTKKFTGLLGGFLTLPLNLPGTTYNKCIKDMKEIQKKLKDILEERLAKGTGNDEDFLGQAIKDKESQQFISEEFIIQLLFSISFASFESISTSLTLILKFLADHPQVVKELEAEHEAIQKARADPDGPITWEEYKSMTFTLNVISETLRLGSVTPALLRKTTKEIQIKGYTIPEGWTVMLVTASRHRDPEVYKDPDTFNPWRWKELDSITVQKNFMPFGGGLRHCAGAEYSKVYLCTFLHILFTKYRWTKLKGGKIARAHILRFEDGLHVKFTPKE
- Peak Area 11-OH CCB (cucurbitadienol): 1.231

B5: SEQ ID NO. 1048/1049: CYP450 enzyme (DNA/protein SEQ ID NO) producing 11-OH cucurbitadienol (protein, listed as Siraitia grosvenorii)
chain: MWLLLIGAIVVLSFTRWLYGWKNPKCNGKLPPGSMGFPLLGETLQFFSPNTSSDVPPFIRKRMDRYGPIFRTNLVGRPLIVSTDSDLNYFIFQQEGQLFQSWYPDTFTEIFGRQNVGSLHGFMYKYLKNMVLHLFGPESLRKMIPEVEAAATRRLRQWSSHNTVELKDETASMIFDLTAKKLISYDLESSSENLRDNFVAFIQGLISFPLNVPGTAYHKCLQGRKRAMRMLKNMLQERRANPRKQQIDFFDFVLEELEKDGTLLTEEIALDLMFVLLFASFETTSLALTAAIKFLLDNPHVLEELTAEHEGILKRRENADSGLTWGEYKSMTFTFQFINETVRLANIVPGIFRKALRDIQFKGYTIPAGWAVMVCPPAVHLNPEKYIDPLAFNPWRWEKSELNGASKHFMAFGGGMRFCVGTDFTKVQMAVFLHCLVTKYRFKAIKGGNIIRTPGLQFPNGFHIQITEK
- Peak Area 11-OH CCB (cucurbitadienol): 0.2083

B6: SEQ ID NO. 1042/1043: CYP450 enzyme (DNA/protein SEQ ID NO) producing 11-OH cucurbitadienol (protein, listed as Siraitia grosvenorii)
chain: MAIFFFFFFFLLVVSVVFVFLFLRASRFRRVRLPPGSLGLPLIGETLQLISAYKTENPEPFIDERVRRFGAVFTTHLFGEPTVFSADWETNRFILQNEEKLFECSYPGSISNLLGKHSLLLMKGNLHKRMHSLTMSFANSSIIRDHLLLDVDRLIRLNLDSWTGRIFLMEEAKKITFELAVKQLMSFDRCEWTQNLMKEYLLVIEGFFTVPLPLLSTTYRRAIRARTKVAEALGLVVRQRRKESDAGKRKNDMLGALLAAEDALSDDQIVDFLLALLVAGYETTSTTMTLAVKFLTEAPLALTQLQEEHEQIKARKKEADQHLQWNDYKSMPFTQCVVNETLRVANIISGVFRRAMTDINIKGYTIPKGWKVFASFRAVHLDHDHFKDARSFNPWRWQQNTSGSTVNAFTPFGGGPRLCPGYELARVELSVFLHHFVTQFSWVPAEDDKLVFFPTTRTQKRYPINVMRKNETRQRKDSLDSRHMKGQESSFDM
- Peak Area 11-OH CCB (cucurbitadienol): 0.3326
